Assay [1] has as its target T1, Human CD73 (amino acid residues 27-549) (Homo sapiens, UniProt P21589).
T1 construct: Human CD73 (amino acid residues 27-549); His tag (N); made in house; host or cells: E. coli
T1 sequence (P21589 27-549): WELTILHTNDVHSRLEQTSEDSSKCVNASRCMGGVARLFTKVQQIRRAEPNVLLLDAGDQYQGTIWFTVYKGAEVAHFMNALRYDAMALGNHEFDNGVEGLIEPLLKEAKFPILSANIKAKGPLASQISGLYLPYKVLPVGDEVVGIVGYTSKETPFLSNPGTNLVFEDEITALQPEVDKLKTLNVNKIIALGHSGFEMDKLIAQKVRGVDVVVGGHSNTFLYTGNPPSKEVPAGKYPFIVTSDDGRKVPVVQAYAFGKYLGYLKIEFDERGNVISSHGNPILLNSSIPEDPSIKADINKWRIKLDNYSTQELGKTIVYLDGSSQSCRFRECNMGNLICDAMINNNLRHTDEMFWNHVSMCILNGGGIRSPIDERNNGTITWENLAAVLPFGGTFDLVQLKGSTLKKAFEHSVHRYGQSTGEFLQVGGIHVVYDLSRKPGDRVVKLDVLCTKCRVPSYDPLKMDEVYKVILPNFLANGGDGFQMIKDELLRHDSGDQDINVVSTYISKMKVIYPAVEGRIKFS
In words: CD73 enzymatic assay (luciferase-based indirect assay, CellTiter-Glo). The following applies: 0.4 nM CD73, 150 μM AMP, 1 hour at room temperature. Format: biochemical. The method, boiled down: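 His-tagged human CD73 (27-549) from E. coli, 0.4 nM, with 150 μM AMP in 50 mM HEPES pH 7.4, 0.01% Tween 20; 1 h at room temperature. AMP remaining read by CellTiter-Glo 2.0 luminescence with 1 μM final ATP after 30 min. IC50 from nonlinear regression of % inhibition.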
Background: ATP-based viability assays read luminescence as a measure of living cells.

Another assay concerns the target T2, human CD73 (Homo sapiens, UniProt P21589).
T2 construct: expressed in transfected cells
T2 sequence (P21589 27-549): T1 sequence (P21589 27-549)
In words: Inhibitor activity against CD73 in cell based assay (CD73 expressing CHO-K1 cells). The following applies: CHO-K1 cells expressing human CD73, 150 μM AMP, 4 hours of incubation; read-out: CHO-K1 CELL VARIANT: CD73 IC50. Put shortly:
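Stably transfected CHO-K1 cells expressing human CD73 (1×10^4/well) incubated 4 h with compound (8-point 1:3 titration, top 10 μM final, 0.2% DMSO) and 150 μM AMP. Residual AMP in supernatant measured by CellTiter-Glo luminescence with 1 μM ATP after 30 min at room temperature; IC50 by nonlinear regression of percent inhibition vs high/low controls.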

As for `O=C(NCC(F)(F)F)N[C@H]1CC[C@H](NC(=O)O[C@@H]2CCN(c3cn[nH]c(=O)c3Cl)C2)CC1` [P-0324, (R)-1-(5-chloro-6-oxo-1,6-dihydropyridazin-4-yl)pyrrolidin-3-yl ((1r,4R)-4-(3-(2,2,2-trifluoroethyl)ureido)cyclohexyl)carbamate], the IC50 (in assay [1]; at human CD73) was 0.001 to 10 µM throughout.

For the compound `COC(=O)N[C@H]1CC[C@H](NC(=O)O[C@@H]2CCN(c3cn[nH]c(=O)c3Cl)C2)CC1` [P-0325, (R)-1-(5-chloro-6-oxo-1,6-dihydropyridazin-4-yl)pyrrolidin-3-yl methyl ((1R,4r)-cyclohexane-1,4-diyl)dicarbamate], the IC50 (in assay [1]; on human CD73) was 0.001 to 10 µM each time.

As for `O=C(NC1CC1)N[C@H]1CC[C@@H](NC(=O)O[C@@H]2CCN(c3cn[nH]c(=O)c3Cl)C2)CC1` [P-0326, (R)-1-(5-chloro-6-oxo-1,6-dihydropyridazin-4-yl)pyrrolidin-3-yl ((1s,4S)-4-(3-cyclopropylureido)cyclohexyl) carbamate], the IC50 (in assay [1]; on human CD73) was 0.001 to 10 µM each time.

As to `CC(C)(C)C(=O)N[C@H]1CC[C@@H](NC(=O)O[C@@H]2CCN(c3cn[nH]c(=O)c3Cl)C2)CC1` [P-0327, (R)-1-(5-chloro-6-oxo-1,6-dihydropyridazin-4-yl)pyrrolidin-3-yl ((1s,4S)-4-pivalamidocyclohexyl) carbamate], the IC50 (in assay [1]; on human CD73) was 0.001 to 10 µM throughout.

Turning to `O=C(NC1CCC2(CC1)CS(=O)(=O)C2)O[C@@H]1CCN(c2cn[nH]c(=O)c2Cl)C1` [P-0328, (R)-1-(5-chloro-6-oxo-1,6-dihydropyridazin-4-yl)pyrrolidin-3-yl (2,2-dioxido-2-thiaspiro[3.5]nonan-7-yl)carbamate], the IC50 (in assay [1]; on human CD73) was 0.001 to 10 µM in each case.

With `O=C(N[C@H]1CC[C@@H](NC2CCCCC2)CC1)O[C@@H]1CCN(c2cn[nH]c(=O)c2Cl)C1` [P-0329, (R)-1-(5-chloro-6-oxo-1,6-dihydropyridazin-4-yl)pyrrolidin-3-yl ((1s,4S)-4-(cyclohexylamino)cyclohexyl) carbamate], the IC50 (in assay [1]; at human CD73) was 0.001 to 10 µM throughout.

As to `O=C(N[C@H]1CC[C@@H](Nc2cc(F)ccn2)CC1)O[C@@H]1CCN(c2cn[nH]c(=O)c2Cl)C1` [P-0330, (R)-1-(5-chloro-6-oxo-1,6-dihydropyridazin-4-yl)pyrrolidin-3-yl ((1s,4S)-4-((4-fluoropyridin-2-yl)amino)cyclohexyl)carbamate], the IC50 (in assay [1]; on human CD73) was 0.001 to 10 µM throughout.

On to `CC(C)(O)Cn1ncc(N2CC[C@@H](OC(=O)NC3CCC(F)(F)CC3)C2)c(Cl)c1=O` [P-0331, (R)-1-(5-chloro-1-(2-hydroxy-2-methylpropyl)-6-oxo-1,6-dihydropyridazin-4-yl)pyrrolidin-3-yl (4,4-difluorocyclohexyl)carbamate], for which the IC50 (in general, the point on the concentration scale where inhibition reaches its midpoint) lay in the range of 0.001 to 10 µM in assay [1] and 10 to 100 µM at human CD73.

On to `O=C(NC1CCC(F)(F)CC1)O[C@@H]1CCN(c2cnn(CCCO)c(=O)c2Cl)C1` [P-0332, (R)-1-(5-chloro-1-(3-hydroxypropyl)-6-oxo-1,6-dihydropyridazin-4-yl)pyrrolidin-3-yl (4,4-difluorocyclohexyl)carbamate], for which the IC50 (in assay [1]; on human CD73) was 0.001 to 10 µM in each case.

With `O=C(NC1CCN(C(=O)CO)CC1(F)F)O[C@@H]1CCN(c2cn[nH]c(=O)c2Cl)C1` (stereo partly drawn) [P-0333, (R)-1-(5-chloro-6-oxo-1,6-dihydropyridazin-4-yl)pyrrolidin-3-yl (3,3-difluoro-1-(2-hydroxyacetyl)piperidin-4-yl)carbamate], the IC50 (in assay [1]; on human CD73) was 0.001 to 10 µM each time.

On to `CS(=O)(=O)N[C@H]1CC[C@H](NC(=O)O[C@@H]2CCN(c3cnn(CCO)c(=O)c3Cl)C2)CC1` [P-0334, (R)-1-(5-chloro-1-(2-hydroxyethyl)-6-oxo-1,6-dihydropyridazin-4-yl)pyrrolidin-3-yl ((1r,4R)-4-(methylsulfonamido)cyclohexyl)carbamate], for which the IC50 (in assay [1]; on human CD73) was 0.001 to 10 µM in each case.

Values taken from patent US12509444B2, “Compounds and methods for CD73 modulation and indications therefor” (Plexxikon Inc., priority 2019, dated 2025).
